# Experimental data as given in article PMC6886798, “Expression of myeloid Src-family kinases is associated with poor prognosis in AML and influences Flt3-ITD kinase inhibitor acquired resistance” (PLoS ONE, 2019).
# How the values were obtained:
# Test in all cases: KINOMEscan
# Assay type in all cases: binding
# Details in all cases: 1.0 µM
# TSSK3 = target: T1, TSSK3 (Homo sapiens, UniProt Q96PN8)
# T1 construct: DNA tag (qPCR barcode); purchased Eurofins/DiscoverX KINOMEscan scanMAX
# Description: (§1) Kinase retention to the immobilized ligand is then measured using quantitative real-time PCR for each kinase-specific DNA barcode.
# CSNK1G2 = target: T2, CSNK1G2 (Homo sapiens, UniProt P78368)
# T2 construct: purchased Eurofins/DiscoverX KINOMEscan scanMAX
# Description: as §1
# CDK4 = target: T3, CDK4 (Homo sapiens, UniProt P11802)
# T3 construct: purchased Eurofins/DiscoverX KINOMEscan scanMAX
# Description: as §1
# CDKL5 = target: T4, CDKL5 (Homo sapiens, UniProt O76039)
# T4 construct: purchased Eurofins/DiscoverX KINOMEscan scanMAX
# Description: as §1
# AMPK-alpha2 = target: T5, AMPK-alpha2 (Homo sapiens, UniProt P54646)
# T5 construct: purchased Eurofins/DiscoverX KINOMEscan scanMAX
# Description: as §1
# MUSK = target: T6, MUSK (Homo sapiens, UniProt O15146)
# T6 construct: purchased Eurofins/DiscoverX KINOMEscan scanMAX
# Description: as §1
# S6K1 = target: T7, S6K1 (Homo sapiens, UniProt P23443)
# T7 construct: purchased Eurofins/DiscoverX KINOMEscan scanMAX
# Description: as §1
# DDR1 = target: T8, DDR1 (Homo sapiens, UniProt Q08345)
# T8 construct: purchased Eurofins/DiscoverX KINOMEscan scanMAX
# Description: as §1
# SRPK3 = target: T9, SRPK3 (Homo sapiens, UniProt Q9UPE1)
# T9 construct: purchased Eurofins/DiscoverX KINOMEscan scanMAX
# T9 sequence (Q9UPE1 whole entry): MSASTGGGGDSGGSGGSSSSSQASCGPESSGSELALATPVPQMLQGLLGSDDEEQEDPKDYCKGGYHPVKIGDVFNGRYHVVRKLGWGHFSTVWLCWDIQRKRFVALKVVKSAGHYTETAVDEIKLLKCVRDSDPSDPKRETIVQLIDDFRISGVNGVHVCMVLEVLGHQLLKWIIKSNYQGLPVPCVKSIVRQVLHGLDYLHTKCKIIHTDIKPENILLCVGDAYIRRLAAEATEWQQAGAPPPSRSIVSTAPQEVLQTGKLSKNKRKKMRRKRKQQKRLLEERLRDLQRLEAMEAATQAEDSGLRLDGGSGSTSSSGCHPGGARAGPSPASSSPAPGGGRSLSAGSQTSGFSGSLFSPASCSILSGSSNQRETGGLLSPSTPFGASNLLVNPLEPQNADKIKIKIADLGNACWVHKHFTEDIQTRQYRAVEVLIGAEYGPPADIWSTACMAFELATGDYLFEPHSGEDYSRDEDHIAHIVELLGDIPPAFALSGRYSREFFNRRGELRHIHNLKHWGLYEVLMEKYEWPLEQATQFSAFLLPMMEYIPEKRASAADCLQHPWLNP
# Description: as §1
# CDK11 = target: T10, CDK11 (Homo sapiens, UniProt Q9BWU1)
# T10 construct: purchased Eurofins/DiscoverX KINOMEscan scanMAX
# T10 sequence (Q9BWU1 whole entry): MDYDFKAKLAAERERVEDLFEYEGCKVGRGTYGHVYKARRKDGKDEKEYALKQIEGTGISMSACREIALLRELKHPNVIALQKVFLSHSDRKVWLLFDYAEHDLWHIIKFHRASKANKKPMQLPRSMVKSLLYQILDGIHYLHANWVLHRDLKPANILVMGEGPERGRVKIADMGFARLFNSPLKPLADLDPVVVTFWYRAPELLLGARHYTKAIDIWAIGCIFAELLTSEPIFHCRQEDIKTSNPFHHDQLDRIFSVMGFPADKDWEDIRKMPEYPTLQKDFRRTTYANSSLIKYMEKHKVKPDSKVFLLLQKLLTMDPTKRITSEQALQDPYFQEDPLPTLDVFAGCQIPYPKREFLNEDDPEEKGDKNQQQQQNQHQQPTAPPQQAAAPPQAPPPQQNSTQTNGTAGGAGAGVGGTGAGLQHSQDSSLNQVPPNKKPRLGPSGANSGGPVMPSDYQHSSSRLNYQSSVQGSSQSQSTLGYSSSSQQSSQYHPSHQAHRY
# Description: as §1
# CSF1R-autoinhibited = target: T11, CSF1R-autoinhibited (Homo sapiens, UniProt P07333)
# T11 construct: purchased Eurofins/DiscoverX KINOMEscan scanMAX
# T11 sequence (P07333 539-972 limits assumed): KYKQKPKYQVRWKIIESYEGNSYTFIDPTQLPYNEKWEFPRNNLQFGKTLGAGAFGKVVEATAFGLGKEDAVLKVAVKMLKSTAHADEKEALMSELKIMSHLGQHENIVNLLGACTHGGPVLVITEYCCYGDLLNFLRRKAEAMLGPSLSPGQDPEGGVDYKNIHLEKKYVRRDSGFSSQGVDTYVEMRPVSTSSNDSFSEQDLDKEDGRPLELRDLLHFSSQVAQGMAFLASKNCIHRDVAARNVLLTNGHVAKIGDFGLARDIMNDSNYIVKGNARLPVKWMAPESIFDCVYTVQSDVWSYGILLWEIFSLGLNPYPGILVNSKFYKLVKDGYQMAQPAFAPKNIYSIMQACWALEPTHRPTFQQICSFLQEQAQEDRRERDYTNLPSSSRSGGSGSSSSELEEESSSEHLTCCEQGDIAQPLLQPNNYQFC
# Description: as §1
# MYO3B = target: T12, MYO3B (Homo sapiens, UniProt Q8WXR4)
# T12 construct: purchased Eurofins/DiscoverX KINOMEscan scanMAX
# Description: as §1
# RET = target: T13, RET (Homo sapiens, UniProt P07949)
# T13 construct: purchased Eurofins/DiscoverX KINOMEscan scanMAX
# Description: as §1
# ERK4 = target: T14, ERK4 (Homo sapiens, UniProt P31152)
# T14 construct: purchased Eurofins/DiscoverX KINOMEscan scanMAX
# Description: as §1
# MAP4K4 = target: T15, MAP4K4 (Homo sapiens, UniProt O95819)
# T15 construct: purchased Eurofins/DiscoverX KINOMEscan scanMAX
# Description: as §1
# IKK-epsilon = target: T16, IKK-epsilon (Homo sapiens, UniProt Q14164)
# T16 construct: purchased Eurofins/DiscoverX KINOMEscan scanMAX
# Description: as §1
# [1] = target: T17, ABL1(Q252H)-phosphorylated (Homo sapiens, UniProt P00519, Q252H)
# T17 construct: purchased Eurofins/DiscoverX KINOMEscan scanMAX
# Description: as §1
# EPHA8 = target: T18, EPHA8 (Homo sapiens, UniProt P29322)
# T18 construct: purchased Eurofins/DiscoverX KINOMEscan scanMAX
# T18 sequence (P29322 28-1005): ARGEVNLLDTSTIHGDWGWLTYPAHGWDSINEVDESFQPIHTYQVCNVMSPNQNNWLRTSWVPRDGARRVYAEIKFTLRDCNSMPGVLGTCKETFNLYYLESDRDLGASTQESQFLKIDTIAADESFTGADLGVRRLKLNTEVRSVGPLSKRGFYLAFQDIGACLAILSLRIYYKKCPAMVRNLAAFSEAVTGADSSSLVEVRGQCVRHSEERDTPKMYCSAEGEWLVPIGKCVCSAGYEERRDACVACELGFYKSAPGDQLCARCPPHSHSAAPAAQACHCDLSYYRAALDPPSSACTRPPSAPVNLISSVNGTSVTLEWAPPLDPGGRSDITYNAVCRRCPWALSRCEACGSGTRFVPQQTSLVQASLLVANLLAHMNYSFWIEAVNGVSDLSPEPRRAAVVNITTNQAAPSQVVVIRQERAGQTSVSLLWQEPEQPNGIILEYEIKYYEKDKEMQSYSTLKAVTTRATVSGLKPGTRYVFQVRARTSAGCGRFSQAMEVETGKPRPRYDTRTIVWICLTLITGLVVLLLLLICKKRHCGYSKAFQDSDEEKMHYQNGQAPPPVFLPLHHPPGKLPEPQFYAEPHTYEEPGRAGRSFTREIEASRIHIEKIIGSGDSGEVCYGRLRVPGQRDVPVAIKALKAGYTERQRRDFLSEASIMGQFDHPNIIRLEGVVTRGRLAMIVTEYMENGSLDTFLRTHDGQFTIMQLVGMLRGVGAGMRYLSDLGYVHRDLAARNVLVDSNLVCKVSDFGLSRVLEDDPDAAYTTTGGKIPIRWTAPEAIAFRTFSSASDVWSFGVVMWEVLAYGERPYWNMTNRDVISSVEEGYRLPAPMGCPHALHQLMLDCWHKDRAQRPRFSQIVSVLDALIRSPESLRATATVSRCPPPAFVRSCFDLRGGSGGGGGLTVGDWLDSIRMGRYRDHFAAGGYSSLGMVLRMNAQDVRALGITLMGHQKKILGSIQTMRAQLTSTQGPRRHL
# Description: as §1
# MELK = target: T19, MELK (Homo sapiens, UniProt Q14680)
# T19 construct: purchased Eurofins/DiscoverX KINOMEscan scanMAX
# Description: as §1
# SGK3 = target: T20, SGK3 (Homo sapiens, UniProt Q96BR1)
# T20 construct: purchased Eurofins/DiscoverX KINOMEscan scanMAX
# T20 sequence (Q96BR1 whole entry): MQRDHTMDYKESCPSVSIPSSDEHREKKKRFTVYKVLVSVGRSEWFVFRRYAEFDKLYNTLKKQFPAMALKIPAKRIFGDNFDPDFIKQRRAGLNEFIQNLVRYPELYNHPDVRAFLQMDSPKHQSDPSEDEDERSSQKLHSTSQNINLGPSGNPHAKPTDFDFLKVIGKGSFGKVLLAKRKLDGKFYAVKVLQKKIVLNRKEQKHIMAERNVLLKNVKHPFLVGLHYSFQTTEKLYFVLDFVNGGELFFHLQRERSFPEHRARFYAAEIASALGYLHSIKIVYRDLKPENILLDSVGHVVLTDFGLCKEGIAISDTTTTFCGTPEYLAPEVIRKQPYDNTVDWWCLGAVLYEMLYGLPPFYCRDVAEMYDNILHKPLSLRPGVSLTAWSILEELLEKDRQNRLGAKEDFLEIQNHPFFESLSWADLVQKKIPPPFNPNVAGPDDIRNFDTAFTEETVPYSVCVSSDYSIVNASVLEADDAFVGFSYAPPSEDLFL
# Description: as §1
# YANK1 = target: T21, YANK1 (Homo sapiens, UniProt Q8WU08)
# T21 construct: DNA tag (qPCR barcode); purchased Eurofins/DiscoverX KINOMEscan scanMAX
# Description: as §1
# PIK3CA(E542K) = target: T22, PIK3CA(E542K) (Homo sapiens, UniProt P42336, E542K)
# T22 construct: purchased Eurofins/DiscoverX KINOMEscan scanMAX
# Description: as §1
# ANKK1 = target: T23, ANKK1 (Homo sapiens, UniProt Q8NFD2)
# T23 construct: purchased Eurofins/DiscoverX KINOMEscan scanMAX
# Description: as §1
# TBK1 = target: T24, TBK1 (Homo sapiens, UniProt Q9UHD2)
# T24 construct: purchased Eurofins/DiscoverX KINOMEscan scanMAX
# Description: as §1
# PIK3CA(E545K) = target: T25, PIK3CA(E545K) (Homo sapiens, UniProt P42336, E545K)
# T25 construct: purchased Eurofins/DiscoverX KINOMEscan scanMAX
# Description: as §1
# p38-gamma = target: T26, p38-gamma (Homo sapiens, UniProt P53778)
# T26 construct: purchased Eurofins/DiscoverX KINOMEscan scanMAX
# Description: as §1
# [2] = target: T27, ABL1(E255K)-phosphorylated (Homo sapiens, UniProt P00519, E255K)
# T27 construct: purchased Eurofins/DiscoverX KINOMEscan scanMAX
# Description: as §1
# ULK3 = target: T28, ULK3 (Homo sapiens, UniProt Q6PHR2)
# T28 construct: DNA tag (qPCR barcode); purchased Eurofins/DiscoverX KINOMEscan scanMAX
# Description: as §1
# KIT = target: T29, KIT (Homo sapiens, UniProt P10721)
# T29 construct: purchased Eurofins/DiscoverX KINOMEscan scanMAX
# Description: as §1
# LZK = target: T30, LZK (Homo sapiens, UniProt O43283)
# T30 construct: purchased Eurofins/DiscoverX KINOMEscan scanMAX
# Description: as §1
# ABL2 = target: T31, ABL2 (Homo sapiens, UniProt P42684)
# T31 construct: purchased Eurofins/DiscoverX KINOMEscan scanMAX
# T31 sequence (P42684 whole entry): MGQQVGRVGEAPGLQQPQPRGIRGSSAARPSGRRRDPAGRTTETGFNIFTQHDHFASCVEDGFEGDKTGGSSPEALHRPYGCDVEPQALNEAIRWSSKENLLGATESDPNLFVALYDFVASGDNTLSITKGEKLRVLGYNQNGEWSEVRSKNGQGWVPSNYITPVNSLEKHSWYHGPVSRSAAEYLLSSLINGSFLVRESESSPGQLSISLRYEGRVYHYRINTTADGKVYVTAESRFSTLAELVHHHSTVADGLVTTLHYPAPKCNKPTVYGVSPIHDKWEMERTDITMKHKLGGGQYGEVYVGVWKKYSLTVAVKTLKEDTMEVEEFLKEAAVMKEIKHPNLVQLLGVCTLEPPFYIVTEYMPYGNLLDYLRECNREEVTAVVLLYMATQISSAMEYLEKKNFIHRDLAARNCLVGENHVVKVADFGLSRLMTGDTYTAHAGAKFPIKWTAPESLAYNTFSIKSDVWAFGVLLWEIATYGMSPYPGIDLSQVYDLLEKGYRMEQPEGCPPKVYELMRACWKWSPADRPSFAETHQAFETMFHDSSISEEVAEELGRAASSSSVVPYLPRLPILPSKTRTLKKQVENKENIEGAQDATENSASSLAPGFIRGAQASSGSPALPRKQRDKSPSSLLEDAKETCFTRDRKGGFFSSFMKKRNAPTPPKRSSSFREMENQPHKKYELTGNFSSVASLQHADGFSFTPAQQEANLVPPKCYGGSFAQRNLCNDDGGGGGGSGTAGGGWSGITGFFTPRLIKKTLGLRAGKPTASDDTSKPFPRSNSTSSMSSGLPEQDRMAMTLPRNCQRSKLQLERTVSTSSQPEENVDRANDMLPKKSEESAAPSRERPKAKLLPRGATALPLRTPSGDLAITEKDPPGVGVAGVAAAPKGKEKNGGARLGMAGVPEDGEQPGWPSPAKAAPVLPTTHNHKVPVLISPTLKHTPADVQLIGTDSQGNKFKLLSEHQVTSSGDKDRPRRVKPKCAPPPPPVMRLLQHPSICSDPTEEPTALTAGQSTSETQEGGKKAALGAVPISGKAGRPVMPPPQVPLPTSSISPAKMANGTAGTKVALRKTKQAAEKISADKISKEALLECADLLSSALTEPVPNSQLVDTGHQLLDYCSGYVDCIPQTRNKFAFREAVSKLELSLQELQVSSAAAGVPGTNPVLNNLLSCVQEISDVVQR
# Description: as §1
# PRKCE = target: T32, PRKCE (Homo sapiens, UniProt Q02156)
# T32 construct: purchased Eurofins/DiscoverX KINOMEscan scanMAX
# Description: as §1
# FLT3(N841I) = target: T33, FLT3(N841I) (Homo sapiens, UniProt P36888, N841I)
# T33 construct: purchased Eurofins/DiscoverX KINOMEscan scanMAX
# Description: as §1
# BRK = target: T34, BRK (Homo sapiens, UniProt Q13882)
# T34 construct: purchased Eurofins/DiscoverX KINOMEscan scanMAX
# Description: as §1
# [3] = target: T35, RPS6KA5(Kin.Dom.2-C-terminal) (Homo sapiens, UniProt O75582)
# T35 construct: RPS6KA5(Kin.Dom.2-C-terminal); purchased Eurofins/DiscoverX KINOMEscan scanMAX
# T35 sequence (O75582 426-687 limits assumed): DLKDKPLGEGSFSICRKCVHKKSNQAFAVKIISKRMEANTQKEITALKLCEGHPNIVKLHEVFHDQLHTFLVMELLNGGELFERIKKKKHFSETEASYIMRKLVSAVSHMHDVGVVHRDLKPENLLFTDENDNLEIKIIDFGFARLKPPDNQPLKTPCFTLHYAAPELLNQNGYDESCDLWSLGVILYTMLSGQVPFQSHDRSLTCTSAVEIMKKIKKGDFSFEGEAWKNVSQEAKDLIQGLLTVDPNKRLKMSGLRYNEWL
# Description: as §1
# AKT1 = target: T36, AKT1 (Homo sapiens, UniProt P31749)
# T36 construct: purchased Eurofins/DiscoverX KINOMEscan scanMAX
# Description: as §1
# JNK3 = target: T37, JNK3 (Homo sapiens, UniProt P53779)
# T37 construct: purchased Eurofins/DiscoverX KINOMEscan scanMAX
# Description: as §1
# MAP3K3 = target: T38, MAP3K3 (Homo sapiens, UniProt Q99759)
# T38 construct: purchased Eurofins/DiscoverX KINOMEscan scanMAX
# T38 sequence (Q99759 whole entry): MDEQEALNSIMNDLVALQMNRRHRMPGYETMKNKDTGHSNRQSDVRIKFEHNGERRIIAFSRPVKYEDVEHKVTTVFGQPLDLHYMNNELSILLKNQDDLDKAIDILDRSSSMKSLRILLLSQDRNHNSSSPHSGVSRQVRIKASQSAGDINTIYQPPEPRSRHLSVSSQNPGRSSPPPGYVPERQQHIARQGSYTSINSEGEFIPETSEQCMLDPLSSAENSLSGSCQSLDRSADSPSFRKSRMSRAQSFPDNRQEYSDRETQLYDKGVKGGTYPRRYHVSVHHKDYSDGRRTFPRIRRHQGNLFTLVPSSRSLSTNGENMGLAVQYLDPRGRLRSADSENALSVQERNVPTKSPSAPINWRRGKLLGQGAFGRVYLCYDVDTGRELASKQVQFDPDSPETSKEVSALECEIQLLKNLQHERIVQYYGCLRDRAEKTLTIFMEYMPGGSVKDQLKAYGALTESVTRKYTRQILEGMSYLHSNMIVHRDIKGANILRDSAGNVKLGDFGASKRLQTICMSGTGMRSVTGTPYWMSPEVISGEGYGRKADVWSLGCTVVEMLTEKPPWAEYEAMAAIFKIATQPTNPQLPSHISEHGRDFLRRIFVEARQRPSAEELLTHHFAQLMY
# Description: as §1
# EPHA6 = target: T39, EPHA6 (Homo sapiens, UniProt Q9UF33)
# T39 construct: purchased Eurofins/DiscoverX KINOMEscan scanMAX
# Description: as §1
# ROCK1 = target: T40, ROCK1 (Homo sapiens, UniProt Q13464)
# T40 construct: purchased Eurofins/DiscoverX KINOMEscan scanMAX
# Description: as §1
# ABL1-phosphorylated = target: T41, ABL1-phosphorylated (Homo sapiens, UniProt P00519)
# T41 construct: purchased Eurofins/DiscoverX KINOMEscan scanMAX
# Description: as §1
# ERK1 = target: T42, ERK1 (Homo sapiens, UniProt P27361)
# T42 construct: purchased Eurofins/DiscoverX KINOMEscan scanMAX
# Description: as §1
structure (smiles),measurement,setting,value
CN1CCN(C2CCC(n3cc(-c4ccc(Oc5ccccc5)cc4)c4c(N)ncnc43)CC2)CC1 (stereo not drawn) [A-419259],% Control,TSSK3,95%
same,% Control,CSNK1G2,84%
same,% Control,CDK4,91%
same,% Control,CDKL5,100%
same,% Control,AMPK-alpha2,42%
same,% Control,MUSK,100%
same,% Control,S6K1,27%
same,% Control,DDR1,65%
same,% Control,SRPK3,99%
same,% Control,CDK11,3.9%
same,% Control,CSF1R-autoinhibited,57%
same,% Control,MYO3B,17%
same,% Control,RET,0%
same,% Control,ERK4,56%
same,% Control,MAP4K4,83%
same,% Control,IKK-epsilon,100%
same,% Control,[1],0.5%
same,% Control,EPHA8,72%
same,% Control,MELK,21%
same,% Control,SGK3,77%
same,% Control,YANK1,30%
same,% Control,PIK3CA(E542K),85%
same,% Control,ANKK1,73%
same,% Control,TBK1,100%
same,% Control,PIK3CA(E545K),95%
same,% Control,p38-gamma,100%
same,% Control,[2],0.5%
same,% Control,ULK3,84%
same,% Control,KIT,0.15%
same,% Control,LZK,85%
same,% Control,ABL2,4.9%
same,% Control,PRKCE,88%
same,% Control,FLT3(N841I),5.3%
same,% Control,BRK,0.2%
same,% Control,[3],96%
same,% Control,AKT1,100%
same,% Control,JNK3,99%
same,% Control,MAP3K3,6.3%
same,% Control,EPHA6,94%
same,% Control,ROCK1,90%
same,% Control,ABL1-phosphorylated,0.25%
same,% Control,ERK1,100%
